Assay results reported in the supplement of paper PMC6004109.

Key:
Details in all cases: temperature: 37 °C
[1] = system: Saccharomyces cerevisiae ZIM 2255 (RPMI); test: FICI maximum (fractional inhibitory concentration index, Loewe) (dimensionless); higher = less synergy / more antagonism
Protocol: (§1)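 CLSI M27-A3 checkerboard broth microdilution of an immunomodulatory drug (or amoxicillin) combined with an antifungal against S. cerevisiae and C. glabrata isolates. Growth was read as OD600 after incubation at 37 °C (48 h for the reported MICs). Reported quantities are the FICI (Loewe: MIC50 for azoles and immunomodulators, MIC90 for AMB; ≤0.5 synergy, ≥4 antagonism), as minimum and maximum over the surface, and the Bliss-independence sum of statistically significant ΔE (positive = synergy). Clinical isolates were tested in RPMI; C. glabrata ATCC 2001 and its pdr1Δ mutant were tested in YPD.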

[2] = system: Candida glabrata ZIM 2369 (RPMI); test: as above
Protocol: as §1

[3] = system: Saccharomyces cerevisiae ZIM 2247 (RPMI); test: FICI minimum (fractional inhibitory concentration index, Loewe) (dimensionless); higher = less synergy / more antagonism
Protocol: as §1

[4] = system: Saccharomyces cerevisiae ZIM 2558 (RPMI); test: as above
Protocol: as §1

[5] = system: Candida glabrata ZIM 2385 (RPMI); test: as above
Protocol: as §1

[6] = system: Saccharomyces cerevisiae ZIM 2269 (RPMI); test: as above
Protocol: as §1

[7] = system: Saccharomyces cerevisiae ZIM 2260 (RPMI); test: as above
Protocol: as §1

[8] = system: Candida glabrata ZIM 2344 (RPMI); test: as above
Protocol: as §1

[9] = system: Candida glabrata ZIM 2389 (RPMI); test: as above
Protocol: as §1

[10] = system: Candida glabrata ZIM 2382 (RPMI); test: as above
Protocol: as §1

[11] = system: Saccharomyces cerevisiae ZIM 2566 (RPMI); test: as above
Protocol: as §1

[12] = system: Saccharomyces cerevisiae ZIM 2255 (RPMI); test: as above
Protocol: as §1

[13] = system: Candida glabrata ZIM 2369 (RPMI); test: as above
Protocol: as §1

[14] = system: Candida glabrata ZIM 2365 (RPMI); test: as above
Protocol: as §1

[15] = system: Saccharomyces cerevisiae ZIM 2247 (RPMI); test: Bliss independence sum of statistically significant ΔE (measured minus predicted growth inhibition) over checkerboard surface (fraction (sum of ΔE; 1 = 100%)); higher = more synergy
[16] = system: Saccharomyces cerevisiae ZIM 2558 (RPMI); test: as above
[17] = system: Candida glabrata ZIM 2385 (RPMI); test: as above
[18] = system: Saccharomyces cerevisiae ZIM 2269 (RPMI); test: as above
[19] = system: Saccharomyces cerevisiae ZIM 2260 (RPMI); test: as above
[20] = system: Candida glabrata ZIM 2344 (RPMI); test: as above
[21] = system: Candida glabrata ZIM 2389 (RPMI); test: as above
[22] = system: Candida glabrata ZIM 2382 (RPMI); test: as above
[23] = system: Saccharomyces cerevisiae ZIM 2566 (RPMI); test: as above
[24] = system: Saccharomyces cerevisiae ZIM 2255 (RPMI); test: as above
[25] = system: Candida glabrata ZIM 2369 (RPMI); test: as above
[26] = system: Candida glabrata ZIM 2365 (RPMI); test: as above

SMILES | FICI maximum [1] | FICI maximum [2] | FICI minimum [3] | FICI minimum [4] | FICI minimum [5] | FICI minimum [6] | FICI minimum [7] | FICI minimum [8] | FICI minimum [9] | FICI minimum [10] | FICI minimum [11] | FICI minimum [12] | FICI minimum [13] | FICI minimum [14] | Bliss independence sum [15] | Bliss independence sum [16] | Bliss independence sum [17] | Bliss independence sum [18] | Bliss independence sum [19] | Bliss independence sum [20] | Bliss independence sum [21] | Bliss independence sum [22] | Bliss independence sum [23] | Bliss independence sum [24] | Bliss independence sum [25] | Bliss independence sum [26]
COc1c(C)c2c(c(O)c1C/C=C(\C)CCC(=O)O)C(=O)OC2 [mycophenolic acid] + C[C@@H]1[C@H](O)[C@@H](C)/C=C/C=C/C=C/C=C/C=C/C=C/C=C/[C@H](O[C@@H]2O[C@H](C)[C@@H](O)[C@H](N)[C@@H]2O)C[C@@H]2O[C@](O)(C[C@@H](O)C[C@@H](O)[C@H](O)CC[C@@H](O)C[C@@H](O)CC(=O)O[C@H]1C)C[C@H](O)[C@H]2C(=O)O [amphotericin B] | 1.25 | 1.12 | 0.767 | 0.375 | 0.5 | 1.03 | 0.58 | 0.625 | 0.531 | 0.5 | 0.633 | 1 | 0.75 | 0.5 | -2.18 | 3.61 | 2.79 | 6.09 | 3.32 | 4.74 | 4.37 | 1.76 | -0.484 | -0.43 | 0.709 | 6.59
COc1c(C)c2c(c(O)c1C/C=C(\C)CCC(=O)O)C(=O)OC2 [mycophenolic acid] + OC(Cn1cncn1)(Cn1cncn1)c1ccc(F)cc1F [fluconazole] | 2.02 | 4.25 | 2.02 | 1.01 | 0.508 | 1.01 | 0.66 | 1.01 | 1.01 | 1.01 | 1.01 | 2.5 | 1.01 | 1.02 | -2.82 | -8.75 | -0.722 | -3.9 | -1.55 | 6.94 | 1.41 | -1.7 | -0.316 | -3.66 | -2.4 | -4.84
C=CC[C@@H]1/C=C(\C)C[C@H](C)C[C@H](OC)[C@H]2O[C@@](O)(C(=O)C(=O)N3CCCC[C@H]3C(=O)O[C@H](/C(C)=C/[C@@H]3CC[C@@H](O)[C@H](OC)C3)[C@H](C)[C@@H](O)CC1=O)[C@H](C)C[C@@H]2OC [tacrolimus] + CCC(C)n1ncn(-c2ccc(N3CCN(c4ccc(OCC5COC(Cn6cncn6)(c6ccc(Cl)cc6Cl)O5)cc4)CC3)cc2)c1=O [itraconazole] | 0.502 | 0.5 | 0.501 | 0.25 | 0.0725 | 0.75 | 0.251 | 0.125 | 0.126 | 1 | 0.13 | 0.254 | 0.25 | 0.5 | 6.82 | 8.75 | 5.63 | 4.75 | 10.8 | 5.44 | 8.47 | 1.94 | 9.53 | 7.07 | 3.73 | 2.36
C=CC[C@@H]1/C=C(\C)C[C@H](C)C[C@H](OC)[C@H]2O[C@@](O)(C(=O)C(=O)N3CCCC[C@H]3C(=O)O[C@H](/C(C)=C/[C@@H]3CC[C@@H](O)[C@H](OC)C3)[C@H](C)[C@@H](O)CC1=O)[C@H](C)C[C@@H]2OC [tacrolimus] + C[C@@H]1[C@H](O)[C@@H](C)/C=C/C=C/C=C/C=C/C=C/C=C/C=C/[C@H](O[C@@H]2O[C@H](C)[C@@H](O)[C@H](N)[C@@H]2O)C[C@@H]2O[C@](O)(C[C@@H](O)C[C@@H](O)[C@H](O)CC[C@@H](O)C[C@@H](O)CC(=O)O[C@H]1C)C[C@H](O)[C@H]2C(=O)O [amphotericin B] | 0.508 | 1.25 | 0.0638 | 0.252 | 0.281 | 0.0825 | 0.251 | 0.516 | 0.26 | 0.251 | 0.25 | 0.0938 | 0.258 | 0.25 | 20.9 | 9.97 | 7.14 | 19.1 | 9.87 | 7.88 | 0.693 | 0.265 | 8.22 | 11.4 | 4.67 | 2.51
C=CC[C@@H]1/C=C(\C)C[C@H](C)C[C@H](OC)[C@H]2O[C@@](O)(C(=O)C(=O)N3CCCC[C@H]3C(=O)O[C@H](/C(C)=C/[C@@H]3CC[C@@H](O)[C@H](OC)C3)[C@H](C)[C@@H](O)CC1=O)[C@H](C)C[C@@H]2OC [tacrolimus] + OC(Cn1cncn1)(Cn1cncn1)c1ccc(F)cc1F [fluconazole] | 1 | 1 | 0.126 | 0.135 | 1 | 0.255 | 0.135 | 0.25 | 0.253 | 0.5 | 0.135 | 0.156 | 0.5 | 1 | 8.81 | 1.84 | 5.34 | 8.35 | 6.04 | 4.23 | 8 | 1.68 | 0.935 | 2.75 | 1.98 | 2.21
